One block for each molecule: values may come before it. No end group written: not given here.
Molecular target: T1, human TAS1R2-WT/TAS1R3-S551N (Homo sapiens, UniProt Q7RTX0+Q8TE23, S551N)
T1 construct: expressed in transfected cells; host or cells: HEK293T stably expressing Gα16gust44
T1 sequence (Q8TE23 20-839): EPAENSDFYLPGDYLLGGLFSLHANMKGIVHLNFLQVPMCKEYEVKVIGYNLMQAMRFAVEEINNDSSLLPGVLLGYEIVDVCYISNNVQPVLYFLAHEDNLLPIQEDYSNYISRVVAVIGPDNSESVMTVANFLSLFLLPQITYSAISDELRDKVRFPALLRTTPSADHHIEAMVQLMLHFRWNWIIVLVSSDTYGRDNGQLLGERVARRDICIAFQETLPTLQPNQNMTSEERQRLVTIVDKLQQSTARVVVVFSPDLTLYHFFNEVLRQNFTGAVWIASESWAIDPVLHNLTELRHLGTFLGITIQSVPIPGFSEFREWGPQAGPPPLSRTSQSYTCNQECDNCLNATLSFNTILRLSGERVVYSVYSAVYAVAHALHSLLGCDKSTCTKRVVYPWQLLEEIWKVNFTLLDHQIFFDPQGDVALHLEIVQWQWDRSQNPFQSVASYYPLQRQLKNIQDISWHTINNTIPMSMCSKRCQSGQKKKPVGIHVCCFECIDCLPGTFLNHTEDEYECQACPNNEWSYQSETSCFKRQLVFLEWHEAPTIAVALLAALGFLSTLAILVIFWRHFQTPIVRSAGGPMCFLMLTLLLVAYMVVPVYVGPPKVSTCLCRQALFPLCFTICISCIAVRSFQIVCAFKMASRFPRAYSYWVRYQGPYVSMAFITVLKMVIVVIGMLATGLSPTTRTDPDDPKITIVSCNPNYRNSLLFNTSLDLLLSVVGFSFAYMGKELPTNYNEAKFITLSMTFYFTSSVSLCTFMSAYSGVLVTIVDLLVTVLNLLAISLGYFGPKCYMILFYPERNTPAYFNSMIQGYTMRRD
T1 sequence (Q7RTX0 21-852 S551N): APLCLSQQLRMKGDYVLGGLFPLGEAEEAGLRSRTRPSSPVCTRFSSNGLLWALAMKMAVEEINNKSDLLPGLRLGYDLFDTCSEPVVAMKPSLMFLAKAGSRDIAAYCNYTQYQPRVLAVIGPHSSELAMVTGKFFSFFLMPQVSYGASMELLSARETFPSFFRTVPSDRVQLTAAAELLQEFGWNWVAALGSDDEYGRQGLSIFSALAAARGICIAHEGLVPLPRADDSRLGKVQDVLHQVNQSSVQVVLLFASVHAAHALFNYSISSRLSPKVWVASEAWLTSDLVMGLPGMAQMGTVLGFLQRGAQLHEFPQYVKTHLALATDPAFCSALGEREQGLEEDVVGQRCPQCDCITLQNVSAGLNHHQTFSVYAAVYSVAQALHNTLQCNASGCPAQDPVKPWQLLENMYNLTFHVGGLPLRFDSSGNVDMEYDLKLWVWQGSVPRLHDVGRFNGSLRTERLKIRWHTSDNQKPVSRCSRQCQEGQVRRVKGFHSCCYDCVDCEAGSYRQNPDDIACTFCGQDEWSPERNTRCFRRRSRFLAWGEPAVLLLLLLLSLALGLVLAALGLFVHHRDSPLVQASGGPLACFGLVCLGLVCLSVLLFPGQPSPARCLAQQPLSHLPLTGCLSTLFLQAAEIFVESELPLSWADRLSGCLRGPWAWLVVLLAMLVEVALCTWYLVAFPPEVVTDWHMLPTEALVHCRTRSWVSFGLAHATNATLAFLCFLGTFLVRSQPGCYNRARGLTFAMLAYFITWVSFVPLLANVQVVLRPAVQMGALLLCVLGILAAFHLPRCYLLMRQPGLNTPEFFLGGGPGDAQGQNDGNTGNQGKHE
Experiment: Calcium mobilisation assay, TAS1R2-WT with TAS1R3 variant S551N
Type: cell-based
Conditions: for Max ΔF/F0: maximal signal amplitude; for Max ΔF/F0 / EC50: "-": no activation
Text: The coding sequences for TAS1R2 and TAS1R3 were commercially synthesised, and the human codon was optimised for expression in human cells. The coding sequences of human TAS1R2 and TAS1R3 were subcloned and inserted into the mammalian expression vectors pcDNA6/myc-HisA and pcDNA4/myc-HisA (Invitrogen; Thermo Fisher Scientific; Illkirch, France) between the EcoRI and NotI restriction sites, generating the plasmids pcDNA6-TAS1R2 and pcDNA4-TAS1R3, respectively. To increase protein expression in mammalian cells, an upstream start codon was used, which was a sequence called MAX, corresponding to the QBI SP163 element also described in pcDNA4-HisMax (Invitrogen; Thermo Fisher Scientific; Illkirch, France). To measure the expression level of the receptor by immunohistochemistry, we used the FLAG sequence ([…]) in the C-terminal position, which encodes the FLAG tag epitope. SNP variants of TAS1R2 and TAS1R3 were constructed based on […], respectively, using site-directed mutagenesis (Genewiz; Leipzig, Germany).
The HEK293T cells were kindly provided by Jay P. Slack (Givaudan Flavors Corporation; Cincinnati, OH, USA). HEK293T cells stably transfected with Gα16gust44 [43, 67] were seeded in poly-D-lysine-coated clear-bottom black 96-well plates (0.35 × 10^5 cells/well) in high-glucose DMEM supplemented with 2 mM GlutaMAX, 10% dialysed foetal bovine serum with penicillin/streptomycin and G418 (400 μg/mL) at 37 °C and 6.3% CO2 in a humidified atmosphere as previously reported. […] As a negative control, HEK293T cells were mock-transfected with the empty expression vector. After a further 24 h of incubation, the HEK293T cells were washed with C1 buffer (130 mM NaCl, 5 mM KCl, 10 mM HEPES pH 7.4 and 2 mM CaCl2). The 96-well plates containing the cells were then stimulated with sweet-tasting compounds. […] Different concentration ranges were tested depending on the sweet compound injected. The Ca^2+ changes were expressed as fractional changes in fluorescent light intensity: ΔF/F = (F − F0)/F0, where F was the fluorescent light intensity at each point, and F0 was the value of emitted fluorescent light prior to stimulus application. To calculate dose–response relationships, the changes in fluorescence upon stimulus application were averaged, mock-subtracted and baseline-corrected. The dose–response data obtained were adjusted using a 4-parameter logistic equation. The half-maximal effective concentrations (EC50 values) and maximal signal amplitudes were calculated using SigmaPlot software (version 15.0) (Systat Software; San Jose, CA, USA).
For in vitro calcium mobilisation assay performed on hTAS1R2-SNPs, hTAS1R3-SNPs and mTAS1R3-I60T, 6 to 7 concentrations were tested for each sweet compound, plus buffer alone. All concentration–receptor combinations were measured in duplicate, and each experiment was repeated at least 4 times (8 wells/concentration). Results were expressed for each concentration as ΔF/F mean ± SEM and represented as dose–response curves.

R1 = Variant EC50/WT EC50: 1.7
Max ΔF/F0: 0.25 ± 0.01
Molecule: thaumatin

EC50: 17.4 ± 2.2 µM
B1: thaumatin (protein)
chain: ATFEIVNRCSYTVWAAASKGDAALDAGGRQLNSGESWTINVEPGTKGGKIWARTDCYFDDSGSGICKTGDCGGLLRCKRFGRPPTTLAEFSLNQYGKDYIDISNIKGFNVPMDFSPTTRGCRGVRCAADIVGQCPAKLKAPGGGCNDACTVFQTSEYCCTTGKCGPTEYSRFFKRLCPDAFSYVLDKPTTVTCPGSSNYRVTFCPTA
modifications: Eight disulfides
notes: sweet-tasting plant protein, E957

Continued, molecule first:

Molecule: C[C@H](CC[C@@H](O[C@@H]1O[C@H](CO[C@@H]2O[C@H](CO)[C@@H](O)[C@H](O)[C@H]2O)[C@@H](O)[C@H](O)[C@H]1O[C@@H]1O[C@H](CO)[C@@H](O)[C@H](O)[C@H]1O)C(C)(C)O)[C@H]1CC[C@@]2(C)[C@@H]3CC=C4[C@@H](CC[C@H](O[C@@H]5O[C@H](CO[C@@H]6O[C@H](CO)[C@@H](O)[C@H](O)[C@H]6O)[C@@H](O)[C@H](O)[C@H]5O)C4(C)C)[C@]3(C)[C@H](O)C[C@]12C [Mogroside V, mogroside V]
R1 = Variant EC50/WT EC50: 3.6
Max ΔF/F0: 0.03

Molecule: C=C(C)[C@@H]1CC=C(/C=N/O)CC1 [Perillartine, perillartine]
R1 = Variant EC50/WT EC50: 3.6
EC50: 49.2 ± 13.6 µM
Max ΔF/F0: 0.52 ± 0.04

Molecule: brazzein (QDKCKKVYENYPVSKCQLANQCNYDCKLDKHARSGECFYDEKRNLQCICDYCEY; ends and bridges not checked; cysteine pairing not given here; UniProt P56552 1-54, looked up) [sweet-tasting protein obtained by recombinant production using the yeast Pichia pastoris]
R1 = Variant EC50/WT EC50: 21.1
Max ΔF/F0: 0.21 ± 0.21

Reference: PMC11945486, “TAS1R2/TAS1R3 Single-Nucleotide Polymorphisms Affect Sweet Taste Receptor Activation by Sweeteners: The SWEET Project” (Nutrients, 2025)
